Test results: patent US20030077826A1, “Chimeric molecules containing a module able to target specific cells and a module regulating the apoptogenic function of the permeability transition pore complex (PTPC)” (priority 2001, published 2003)
Ends that are not written are not given here. Peptide text beside a SMILES is read from it. * marks the point of attachment. Biotin = O=C1N[C@H]2[C@H](CS[C@H]2CCCCC(=O)*)N1

How the values were obtained:
[1] = tested on: permeability transition pore (PTP); assay: Swelling of isolated mitochondria (large amplitude swelling, 90° light scattering); type: biochemical, rat; set-up: key to Induction of Mitochondrial swelling (sw): +++ rapid sw; ++ low sw; + very low sw; − no sw t 20 min; details: for Induction of Mitochondrial swelling (sw): 5 μM, 20 min, isolated mitochondria
Experimental: Mitochondria are purified from rat liver, as described (Costantini et al., 1996), and resuspended in 250 mM sucrose+0.1 mM EGTA+10 mM-tris[hydroxymethyl]methyl-2-Aminoethanesulfonic acid, pH=7.4). For the induction of PT, mitochondria (0.5 mg protein per ml) are resuspended in PT buffer (200 mM sucrose, 10 mM Tris-MOPS (pH 7.4), 5 mM Tris-succinate, 1 mM Tris-phosphate, 2 μM rotenone, and 10 μM EGTA-Tris), and monitored in an F4500 fluorescence spectrometer (Hitachi, Tokyo, Japan) for the 90° light scattering of light ([…]), 1 μM cyclosporin A (CsA; Novartis, Basel, Switzerland), 5 μM CaCl2, and/or 0.5 to 20 μM of pTarg-pTox or pTarg-pSave. For the determination of the ΔΨm, mitochondria (0.5 mg protein per ml) are incubated in a buffer supplemented with 1 μM rhodamine 123 (Molecular Probes, Eugene, Oreg.) and the dequenching of rhodamine fluorescence (excitation 505 nm, emission 525 nm) is measured as described (Shimizu et al, 1998). Supernatants from mitochondria (6800 g for 15 min; then 20 000 g for 1 h; 4° C.) are frozen at −80° C. until determination of apoptogenic activity on isolated nuclei, DEVD-afc cleaving activity, and immunodetection of cytochrome c and AIF. Cytochrome c and AIF are detected by means of a monoclonal antibody (clone 7H8.2C12, Pharmingen) and a polyclonal rabbit anti-serum (Susin et al. 1999) respectively.

[2] = target: T1, Purified ANT (Rattus norvegicus, UniProt Q05962); assay: biochemical; type: binding
T1 sequence (Q05962 1-298): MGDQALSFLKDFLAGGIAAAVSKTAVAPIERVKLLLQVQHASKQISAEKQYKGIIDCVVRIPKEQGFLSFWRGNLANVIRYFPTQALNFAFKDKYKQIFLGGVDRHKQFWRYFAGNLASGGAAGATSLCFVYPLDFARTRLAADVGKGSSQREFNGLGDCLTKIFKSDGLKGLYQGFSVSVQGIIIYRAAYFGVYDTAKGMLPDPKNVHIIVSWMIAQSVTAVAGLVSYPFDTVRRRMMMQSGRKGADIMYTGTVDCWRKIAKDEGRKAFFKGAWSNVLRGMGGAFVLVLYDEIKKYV
Experimental: (§1) Sensor Chips SA (streptavidin coated sensor chips) were used for immobilisation of the different peptides. Tox1 was immobilised at a density of 0.7 ng/mm^2, Tox0 at a density of 3.7 ng/mm^2,. Ctr1Tox0 at a density of 1.4 ng/mm^2, Tox5 at a density of 1 ng/mm^2, Tox6 at a density of 1 ng/mm2, Save1 at a density of 1.3 ng/mm^2, and the control peptide at a density of 0.8 ng/mm^2. Association and dissociation kinetics of ANT and VDAC interactions were followed at a rate of 10 μL/min for 10 minutes (5 minutes association and 5 minutes dissociation). The ligand was regenerated with a 1 minute flux of KSCN 3M. The obtained sensorgrams were analysed by the BlAeval 3.1 software using the method of double references (Myszka D. G. 2000. Kinetic, equilibrium and thermodynamic analysis of macromolecular interactions with BIACORE. Methods Enzymol. 323:325-340). From the sensorgrams with the ligands were first substracted the sensorgrams obtained with the corresponding analyte solvents. A second substraction was performed with the sensorgrams obtained with the control peptide ligand. The control peptide for the Tox and Save peptides was biot-H19C corresponding to the sequence of the β2-adrenergic receptor (Lebesgue D., Wallukat G., Mijares A., Granier C., Argibay J., and Hoebeke J. (1998) An agonist-like monoclonal antibody to the human β 2-adrenergic receptor. Eur.J. Pharmacol. 348:123-133). The control peptide for Tox0 was Ctr1Tox0.

[3] = tested on: Purified VDAC; assay: Surface plasmon resonance, immobilised peptides with purified VDAC; type: binding; details: for specific binding of VDAC: 50 nM VDAC
Experimental: as §1

[4] = target: T2, adenine nucleotide translocator (ANT), purified from rat heart mitochondria (rat), Q05962; assay: SPR (BIAcore), peptide on streptavidin chip, ANT as analyte at one concentration (50 nM)
T2 chain: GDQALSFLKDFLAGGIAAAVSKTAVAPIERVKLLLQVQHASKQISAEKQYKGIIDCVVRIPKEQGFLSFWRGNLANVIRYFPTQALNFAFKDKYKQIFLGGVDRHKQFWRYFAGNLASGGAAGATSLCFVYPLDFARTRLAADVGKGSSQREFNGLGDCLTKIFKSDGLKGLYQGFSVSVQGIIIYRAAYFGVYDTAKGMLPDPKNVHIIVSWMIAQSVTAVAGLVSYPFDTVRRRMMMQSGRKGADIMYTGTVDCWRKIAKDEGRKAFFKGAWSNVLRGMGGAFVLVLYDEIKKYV

[5] = target: T2, adenine nucleotide translocator (ANT), …

## C=C1[C@@H]2CC[C@H]3[C@]4(C)C[C@H](O[C@@H]5O[C@H](CO)[C@@H](OS(=O)(=O)O)[C@H](OS(=O)(=O)O)[C@H]5OC(=O)CC(C)C)C[C@@H](C(=O)O)[C@H]4CC[C@]3(C2)[C@H]1O [Atractyloside, atractyloside, reference compound]
[1]; 600 μM alone
  Mitrochondrial swelling (sw) %: 110%

## [Ca+2] [Ca 2 +, reference compound]
[1]; 100 μM alone
  Mitrochondrial swelling (sw) %: 100%

## C[C@H](NC(=O)[C@H](Cc1ccccc1)NC(=O)[C@H](Cc1ccc(O)cc1)NC(=O)[C@H](CCCNC(=N)N)NC(=O)[C@H](Cc1c[nH]c2ccccc12)NC(=O)[C@H](Cc1ccccc1)NC(=O)[C@H](CCC(N)=O)NC(=O)[C@@H](NC(=O)[C@H](CCCNC(=N)N)NC(=O)[C@H](CCCCN)NC(=O)[C@H](CC(=O)O)NC(=O)[C@H](CCCNC(=N)N)NC(=O)[C@H](CCCNC(=N)N)NC(=O)[C@H](CCCNC(=N)N)NC(=O)[C@H](CCC(N)=O)NC(=O)[C@H](CCCNC(=N)N)NC(=O)[C@H](CCCNC(=N)N)NC(=O)[C@H](CCCCN)NC(=O)[C@H](CCCCN)NC(=O)[C@H](CCCNC(=N)N)NC(=O)CCCC[C@@H]1SC[C@@H]2NC(=O)N[C@@H]21)[C@@H](C)O)C(=O)NCC(=O)N[C@@H](CC(N)=O)C(=O)O [Save1, Biot-RKKRRQRRR-DKRTQFWRYFAGN (hANT2)] (Biotin-RKKRRQRRRDKRTQFWRYFAGN-OH; C-terminus assumed)
[1]; 5 μM + Atr 600 μM
  Mitrochondrial swelling (sw) %: 5%
[1]; 5 μM alone
  Mitrochondrial swelling (sw) %: 2%
[1]; 20 μM + Atr 600 μM
  Mitrochondrial swelling (sw) %: 12%
[1]; 20 μM alone
  Mitrochondrial swelling (sw) %: 12%
[2]
  Kd: 0.01 nM
[3]
  specific binding of VDAC: did not result in any specific binding

## CC[C@H](C)[C@H](NC(=O)CNC(=O)[C@@H](NC(=O)[C@H](CCCNC(=N)N)NC(=O)[C@H](CO)NC(=O)[C@H](Cc1c[nH]cn1)NC(=O)[C@H](CCCNC(=N)N)NC(=O)[C@H](CS)NC(=O)CNC(=O)[C@@H](NC(=O)[C@H](CCCNC(=N)N)NC(=O)[C@H](Cc1ccccc1)NC(=O)[C@H](Cc1c[nH]cn1)NC(=O)[C@@H](NC(=O)[C@H](Cc1ccccc1)NC(=O)[C@H](CC(C)C)NC(=O)[C@H](CC(C)C)NC(=O)[C@H](CCC(N)=O)NC(=O)[C@H](CCC(N)=O)NC(=O)[C@H](CC(C)C)NC(=O)[C@@H](NC(=O)[C@H](CCCNC(=N)N)NC(=O)[C@@H](NC(=O)[C@H](CC(C)C)NC(=O)[C@H](C)NC(=O)[C@H](CCC(=O)O)NC(=O)[C@@H](NC(=O)CNC(=O)[C@@H](NC(=O)[C@H](Cc1c[nH]c2ccccc12)NC(=O)[C@@H](NC(=O)[C@H](CC(=O)O)NC(=O)CCCC[C@@H]1SC[C@@H]2NC(=O)N[C@@H]21)[C@@H](C)O)[C@@H](C)O)C(C)C)[C@@H](C)CC)[C@@H](C)CC)[C@@H](C)CC)[C@@H](C)CC)[C@@H](C)CC)C(=O)N[C@H](C(=O)N[C@@H](CCC(N)=O)C(=O)N[C@@H](CCC(N)=O)C(=O)N[C@@H](CCCNC(=N)N)C(=O)N[C@@H](CCCNC(=N)N)C(=O)N[C@H](C(=O)N[C@@H](CCCNC(=N)N)C(=O)N[C@@H](CC(N)=O)C(=O)NCC(=O)N[C@@H](C)C(=O)N[C@@H](CO)C(=O)N[C@@H](CCCCN)C(=O)N[C@@H](CO)C(=O)O)[C@@H](C)O)[C@@H](C)CC [Tox0]
[2]
  Kd: 0.15 nM

## C[C@@H](O)[C@H](NC(=O)[C@H](CCCNC(=N)N)NC(=O)[C@H](CCCCN)NC(=O)[C@H](CC(=O)O)NC(=O)CNC(=O)CNC(=O)[C@H](CS)NC(=O)[C@H](CCCNC(=N)N)NC(=O)CNC(=O)[C@H](CC(N)=O)NC(=O)[C@H](CS)NC(=O)CCCC[C@@H]1SC[C@@H]2NC(=O)N[C@@H]21)C(=O)N[C@@H](CCC(N)=O)C(=O)N[C@@H](Cc1ccccc1)C(=O)N[C@@H](Cc1c[nH]c2ccccc12)C(=O)N[C@@H](CCCNC(=N)N)C(=O)N[C@@H](Cc1ccc(O)cc1)C(=O)N[C@@H](Cc1ccccc1)C(=O)N1CCC[C@H]1C(=O)NCC(=O)N[C@@H](CC(N)=O)C(=O)O [Tox5, Biot-CNGRC-GG-DKRTQFWRYFPGN (hANT2m)] (Biotin-CNGRCGGDKRTQFWRYFPGN-OH; N-terminus and C-terminus assumed)
[1]
  Induction of Mitochondrial swelling (sw): ++
[3]
  specific binding of VDAC: did not result in any specific binding

## C[C@H](NC(=O)CCCC[C@@H]1SC[C@@H]2NC(=O)N[C@@H]21)C(=O)N[C@@H](CS)C(=O)N[C@@H](CC(=O)O)C(=O)N[C@@H](CS)C(=O)N[C@@H](CCCNC(=N)N)C(=O)NCC(=O)N[C@@H](CC(=O)O)C(=O)N[C@@H](CS)C(=O)N[C@@H](Cc1ccccc1)C(=O)N[C@@H](CS)C(=O)NCC(=O)NCC(=O)N[C@@H](CC(=O)O)C(=O)N[C@@H](CCCCN)C(=O)N[C@@H](CCCNC(=N)N)C(=O)N[C@H](C(=O)N[C@@H](CCC(N)=O)C(=O)N[C@@H](Cc1ccccc1)C(=O)N[C@@H](Cc1c[nH]c2ccccc12)C(=O)N[C@@H](CCCNC(=N)N)C(=O)N[C@@H](Cc1ccc(O)cc1)C(=O)N[C@@H](Cc1ccccc1)C(=O)N1CCC[C@H]1C(=O)NCC(=O)N[C@@H](CC(N)=O)C(=O)O)[C@@H](C)O [Tox6, Biot-ACDCRGDCFC-GG-DKRTQFWRYFPGN (hANT2m)] (Biotin-ACDCRGDCFCGGDKRTQFWRYFPGN-OH; N-terminus and C-terminus assumed)
[1]
  Induction of Mitochondrial swelling (sw): ++
[3]
  specific binding of VDAC: did not result in any specific binding

## Biot- CNGRC-GG-HFAIGCRHSAIG [Ctr1 Tox1]
[1]
  Induction of Mitochondrial swelling (sw): −

## Biot- CNGRC-GG-HFRIGCRHSRIG [Tox1]
[1]
  Induction of Mitochondrial swelling (sw): ++
[2]; surface plasmon resonance
  binding to purified ANT (in words): Binds
[3]; VDAC concentrations ten times higher than ANT
  association of VDAC with the peptide ligand: only extremely low association

## Biot-CNGRC-GG-CNGRC [Ctr2 Tox1]
[1]
  Induction of Mitochondrial swelling (sw): −

## Biot-GG-HFRIGCRHSRIG [Ctr3 Tox1]
[1]
  Induction of Mitochondrial swelling (sw): +

## Biot-RKKRRQRRR-LASGGAAGATSLCFVYPL (hANT[117-134]) [Save2]
[1]; 10 μM + Atr 600 μM
  Mitrochondrial swelling (sw) %: 16%
[1]; 10 μM alone
  Mitrochondrial swelling (sw) %: 2%
[1]; 20 μM + Atr 600 μM
  Mitrochondrial swelling (sw) %: 16%
[1]; 20 μM alone
  Mitrochondrial swelling (sw) %: 16%

## ACDCRGDCFCGGDKRTQFWRYFPGN (modifications not checked) [Tox6 (Biot-…-GG-… (hANT2m))]
[4]
  relative affinity: 0.7 nM

## CNGRCGGDKRTQFWRYFPGN (modifications not checked) [Tox5 (Biot-CNGRC-GG-… (hANT2m))]
[4]
  relative affinity: 0.1 nM

## DTWTGVEALIRILQQLLFIHFRIGCRHSRIGIIQQRRTRNGASKS (not fully specified (N-terminus)) [Tox0 (Biotin-Vpr52-96)]
[5]
  Kd: 0.15 nM
